How the values were obtained:
[1] = tested on: Mycosphaerella graminicola (Septoria tritici); experiment: Mycosphaerella graminicola (Septoria tritici) / liquid culture (Septoria blotch); assay type: cell-based; conditions: Zymoseptoria tritici, PDB liquid culture, 24° C., growth inhibition determined photometrically 4-5 days after application, vs untreated control
Procedure: Example B12: Mycosphaerella graminicola (Septoria tritici)/Liquid Culture (Septoria Blotch) Conidia of the fungus from cryogenic storage are directly mixed into nutrient broth (PDB potato dextrose broth). After placing a (DMSO) solution of test compound into a microtiter plate (96-well format), the nutrient broth containing the fungal spores is added. The test plates are incubated at 24° C. and the inhibition of growth is determined photometrically 4-5 days after application. […] […]-48, and P-49.

[2] = tested on: Mycosphaerella arachidis (Cercospora arachidicola); experiment: Mycosphaerella arachidis (Cercospora arachidicola) / liquid culture (early leaf spot); assay type: cell-based; conditions: PDB liquid culture, 24° C., growth inhibition determined photometrically 4-5 days after application, vs untreated control
Procedure: Example B6: Mycosphaerella arachidis (Cercospora arachidicola)/Liquid Culture (Early Leaf Spot) Conidia of the fungus from cryogenic storage are directly mixed into nutrient broth (PDB potato dextrose broth). After placing a (DMSO) solution of test compound into a microtiter plate (96-well format), the nutrient broth containing the fungal spores is added. The test plates are incubated at 24° C. and the inhibition of growth is determined photometrically 4-5 days after application. […] […]-44, and P-48.

[3] = tested on: Monographella nivalis (Microdochium nivale); experiment: Monographella nivalis (Microdochium nivale) / liquid culture (foot rot cereals); assay type: cell-based; conditions: PDB liquid culture, 24° C., growth inhibition determined photometrically 4-5 days after application, vs untreated control
Procedure: (§1) Example B5: Monographella nivalis (Microdochium nivale)/Liquid Culture (Foot Rot Cereals) Conidia of the fungus from cryogenic storage are directly mixed into nutrient broth (PDB potato dextrose broth). After placing a (DMSO) solution of test compound into a microtiter plate (96-well format), the nutrient broth containing the fungal spores is added. The test plates are incubated at 24° C. and the inhibition of growth is determined photometrically 4-5 days after application. […] […]-49, and P-50.

[4] = tested on: Glomerella lagenarium (Colletotrichum lagenarium); experiment: Glomerella lagenarium (Colletotrichum lagenarium) / liquid culture (anthracnose); assay type: cell-based; conditions: Colletotrichum orbiculare, PDB liquid culture, 24° C., growth inhibition measured photometrically 3-4 days after application, vs untreated control
Procedure: as §1, with “B2: Glomerella lagenarium (Colletotrichum lagenarium)/Liquid” for “B5: Monographella nivalis (Microdochium nivale)/Liquid”, “(Anthracnose)” for “(Foot Rot Cereals)”, “measured” for “determined”, “3-4” for “4-5”

[5] = tested on: Magnaporthe grisea (Pyricularia oryzae); experiment: whole plant or invertebrate; assay type: in vivo; conditions: foliar, read-out: control of Magnaporthe grisea
[6] = tested on: Blumeria graminis f. sp. tritici (Erysiphe graminis f. sp. tritici); experiment: Blumeria graminis f. sp. tritici / wheat / leaf disc preventative (powdery mildew on wheat); assay type: in vivo; conditions: foliar, wheat leaf segments cv. Kanzler, inoculated 1 day after application, assessed 6-8 days after application, vs untreated control
Procedure: Example B3: Blumeria graminis f. sp. tritici (Erysiphe graminis f. so. tritici)/Wheat/Leaf Disc Preventative (Powdery Mildew on Wheat) Wheat leaf segments cv. Kanzler are placed on agar in a multiwell plate (24-well format) and sprayed with the formulated test compound diluted in water. The leaf disks are inoculated by shaking powdery mildew infected plants above the test plates 1 day after application. The inoculated leaf disks are incubated at 20°° C. and 60% rh under a light regime of 24 h darkness followed by 12 h light/12 h darkness in a climate chamber and the activity of a compound is assessed as percent disease control compared to untreated when an appropriate level of disease damage appears on untreated check leaf segments (6-8 days after application). […]-45, and P-50.

Alternaria solani = Alternaria solani / tomato / leaf disc (early blight); assay type: in vivo; conditions: foliar, tomato leaf disks cv. Baby, inoculated 2 days after application, assessed 5-7 days after application, vs untreated control
Procedure: Example B1: Alternaria solani/Tomato/Leaf Disc (Early Blight) Tomato leaf disks cv. Baby are placed on agar in multiwell plates (24-well format) and sprayed with the formulated test compound diluted in water. The leaf disks are inoculated with a spore suspension of the fungus 2 days after application. The inoculated leaf disks are incubated at 23° C./21° C. […] […]-43, and P-44.

COc1ncc(NC2CCCC2)nc1C(=O)NC1CCC1(C)C (stereo not drawn) [Compound P-1, 6-(cyclopentylamino)-N-(2,2-dimethylcyclobutyl)-3-methoxy-pyrazine-2-carboxamide]
≥ 80%: inhibition of growth at 20 ppm [1] | inhibition of growth at 20 ppm [2] | inhibition of growth at 20 ppm [3] | inhibition of growth at 20 ppm [4]

COc1ncc(Nc2cc(F)cc(F)c2)nc1C(=O)NC1CCN(c2cccc(OC(F)(F)F)c2)C1=O (stereo not drawn) [Compound P-6, 6-(3,5-difluoroanilino)-3-methoxy-N-[2-oxo-1-[3-(trifluoromethoxy)phenyl]pyrrolidin-3-yl]pyrazine-2-carboxamide]
≥ 80%: inhibition of growth at 20 ppm [3] | inhibition of growth at 20 ppm [4] | pest or weed control at 200 ppm [5]

COc1ncc(NCC(C)(C)O)nc1C(=O)NC1CCC1(C)C (stereo not drawn) [Compound P-8, N-(2,2-dimethylcyclobutyl)-6-[(2-hydroxy-2-methyl-propyl)amino]-3-methoxy-pyrazine-2-carboxamide]
≥ 80%: inhibition of growth at 20 ppm [3] | pest or weed control at 200 ppm [6] | inhibition of growth at 20 ppm [4]

COc1ncc(Nc2cnsc2)nc1C(=O)NCc1ccc(Oc2ccccc2)cc1 [Compound P-13, 6-(isothiazol-4-ylamino)-3-methoxy-N-[(4-phenoxyphenyl)methyl] pyrazine-2-carboxamide]
≥ 80%: inhibition of growth at 20 ppm [1] | inhibition of growth at 20 ppm [2] | inhibition of growth at 20 ppm [3] | pest or weed control at 200 ppm (Alternaria solani) | inhibition of growth at 20 ppm [4] | pest or weed control at 200 ppm [5]

COc1ncc(Nc2cnsc2)nc1C(=O)NC1CCc2ccc(C(F)(F)F)cc21 (stereo not drawn) [Compound P-14, 6-(isothiazol-4-ylamino)-3-methoxy-N-[6-(trifluoromethyl)indan-1-yl]pyrazine-2-carboxamide]
≥ 80%: inhibition of growth at 20 ppm [1] | inhibition of growth at 20 ppm [3] | inhibition of growth at 20 ppm [4] | pest or weed control at 200 ppm [5]

COc1ncc(Nc2cc(F)cc(F)c2)nc1C(=O)NC1C2CCOC2C1(C)C (stereo not drawn) [Compound P-16, 6-(3,5-difluoroanilino)-N-(7,7-dimethyl-2-oxabicyclo[3.2.0]heptan-6-yl)-3-methoxy-pyrazine-2-carboxamide]
≥ 80%: inhibition of growth at 20 ppm [1] | inhibition of growth at 20 ppm [2] | inhibition of growth at 20 ppm [3] | pest or weed control at 200 ppm (Alternaria solani) | pest or weed control at 200 ppm [6] | inhibition of growth at 20 ppm [4] | pest or weed control at 200 ppm [5]

COc1ncc(Nc2cc(F)cc(F)c2)nc1C(=O)NCC1(c2ccc(C(F)(F)F)cn2)CC1 [Compound P-19, 6-(3,5-difluoroanilino)-3-methoxy-N-[[1-[5-(trifluoromethyl)-2-pyridyl]cyclopropyl]methyl]pyrazine-2-carboxamide]
≥ 80%: inhibition of growth at 20 ppm [3] | inhibition of growth at 20 ppm [4] | pest or weed control at 200 ppm [5]

COc1ncc(Nc2cc(F)cc(F)c2)nc1C(=O)NCC1(C)CCOC1 (stereo not drawn) [Compound P-21]
≥ 80%: inhibition of growth at 20 ppm [1] | inhibition of growth at 20 ppm [3] | pest or weed control at 200 ppm [6] | inhibition of growth at 20 ppm [4] | pest or weed control at 200 ppm [5]

COc1ncc(Nc2cc(F)cc(F)c2)nc1C(=O)NCc1c(Cl)cncc1Cl [Compound P-23, N-[(3.5-dichloro-4-pyridyl)methyl]-6-(3,5-difluoroanilino)-3-methoxy-pyrazine-2-carboxamide]
≥ 80%: inhibition of growth at 20 ppm [4] | pest or weed control at 200 ppm [5]

COc1ncc(Nc2cc(F)cc(F)c2)nc1C(=O)NC1COC(C2CC2)C1 (stereo not drawn) [Compound P-24, N-(5-cyclopropyltetrahydrofuran-3-yl)-6-(3,5-difluoroanilino)-3-methoxy-pyrazine-2-carboxamide]
≥ 80%: inhibition of growth at 20 ppm [1] | inhibition of growth at 20 ppm [2] | inhibition of growth at 20 ppm [3] | pest or weed control at 200 ppm [6] | inhibition of growth at 20 ppm [4]

COc1ncc(Nc2cc(F)cc(F)c2)nc1C(=O)NCC1COc2ccccc21 (stereo not drawn) [Compound P-26, 6-(3,5-difluoroanilino)-N-(2,3-dihydrobenzofuran-3-yimethyl)-3-methoxy-pyrazine-2-carboxamide]
≥ 80%: inhibition of growth at 20 ppm [4] | pest or weed control at 200 ppm [5]

COc1ncc(Nc2cc(F)cc(F)c2)nc1C(=O)NC1CC2CCOC21 (stereo not drawn) [Compound P-28, 6-(3,5-difluoroanilino)-3-methoxy-N-(2-oxabicyclo[3.2.0]heptan-7-yl)pyrazine-2-carboxamide]
≥ 80%: pest or weed control at 200 ppm (Alternaria solani) | pest or weed control at 200 ppm [6] | inhibition of growth at 20 ppm [4] | pest or weed control at 200 ppm [5]

COc1ncc(Nc2cc(F)cc(F)c2)nc1C(=O)NCc1ccc(Oc2ccccc2)cc1 [Compound P-30]
≥ 80%: inhibition of growth at 20 ppm [1] | inhibition of growth at 20 ppm [2] | inhibition of growth at 20 ppm [3] | pest or weed control at 200 ppm (Alternaria solani) | pest or weed control at 200 ppm [6] | inhibition of growth at 20 ppm [4] | pest or weed control at 200 ppm [5]

COc1ncc(Nc2cc(F)nc(F)c2)nc1C(=O)NCC1(C(F)(F)F)CC1 [Compound P-35, 6-[(2,6-difluoro-4-pyridyl)amino]-3-methoxy-N-[[1-(trifluoromethyl)cyclopropyl]methyl] pyrazine-2-carboxamide]
≥ 80%: pest or weed control at 200 ppm [6] | inhibition of growth at 20 ppm [4] | pest or weed control at 200 ppm [5]

COc1ncc(Nc2cc(F)nc(F)c2)nc1C(=O)NCc1ccc(Oc2ccccc2)cc1 [Compound P-36, 6-[(2,6-difluoro-4-pyridyl)amino]-3-methoxy-N-[(4-phenoxyphenyl)methyl]pyrazine-2-carboxamide]
≥ 80%: inhibition of growth at 20 ppm [4] | pest or weed control at 200 ppm [5]

COc1ncc(Nc2cnsc2)nc1C(=O)NC1CCC1(C)C (stereo not drawn) [Compound P-42, (isothiazol-4-ylamino)-N-(2,2-dimethylcyclobutyl)-6-3-methoxy-pyrazine-2-carboxamide]
≥ 80%: inhibition of growth at 20 ppm [1] | inhibition of growth at 20 ppm [3] | pest or weed control at 200 ppm [5]

Cc1ncc(Nc2cc(F)cc(F)c2)nc1C(=O)NC1CCC1(C)C (stereo not drawn) [Compound P-47, 6-(3,5-difluoroanilino)-N-(2,2-dimethylcyclobutyl)-3-methyl-pyrazine-2-carboxamide]
≥ 80%: inhibition of growth at 20 ppm [3] | inhibition of growth at 20 ppm [4] | pest or weed control at 200 ppm [5]

CC1(NC(=O)c2cncc(Nc3cc(F)cc(F)c3)n2)CCCC1 [Compound P-48, 6-(3,5-difluoroanilino)-N-(1-methylcyclopentyl) pyrazine-2-carboxamide]
≥ 80%: inhibition of growth at 20 ppm [1] | inhibition of growth at 20 ppm [2] | inhibition of growth at 20 ppm [3] | inhibition of growth at 20 ppm [4]

CC1(NC(=O)c2cncc(Nc3cc(F)nc(F)c3)n2)CCCC1 [Compound P-49, 6-[(2,6-difluoro-4-pyridyl)amino]-N-(1-methylcyclopentyl) pyrazine-2-carboxamide]
≥ 80%: inhibition of growth at 20 ppm [1] | inhibition of growth at 20 ppm [3] | inhibition of growth at 20 ppm [4] | pest or weed control at 200 ppm [5]

Cc1ncc(Nc2cc(F)nc(F)c2)nc1C(=O)NC1CCC1(C)C (stereo not drawn) [Compound P-50, 6-[(2,6-difluoro-4-pyridyl)amino]-N-(2,2-dimethylcyclobutyl)-3-methyl-pyrazine-2-carboxamide]
≥ 80%: inhibition of growth at 20 ppm [3] | pest or weed control at 200 ppm [6] | inhibition of growth at 20 ppm [4] | pest or weed control at 200 ppm [5]
